Experimental data from ChEMBL document CHEMBL4340549, “Design, synthesis and biological evaluation of isochroman-4-one hybrids bearing piperazine moiety as antihypertensive agent candidates” (Bioorg Med Chem, 2019).

How the values were obtained:
Thoracic aorta [1] = experiment: Vasodilatory activity in Sprague-Dawley rat thoracic aorta assessed as inhibition of noradrenaline-induced contractions at 10 uM relative to untreated control; format: functional
[2] = target: T1, Alpha-1D adrenergic receptor (Rattus norvegicus, UniProt P23944); experiment: Antagonist activity at alpha-1D adrenergic receptor in SPF rat vas thoracic aorta assessed as inhibition of noradrenaline-induced contractions; settings: read-out: pA2 (converted)
T1 sequence (P23944 whole entry): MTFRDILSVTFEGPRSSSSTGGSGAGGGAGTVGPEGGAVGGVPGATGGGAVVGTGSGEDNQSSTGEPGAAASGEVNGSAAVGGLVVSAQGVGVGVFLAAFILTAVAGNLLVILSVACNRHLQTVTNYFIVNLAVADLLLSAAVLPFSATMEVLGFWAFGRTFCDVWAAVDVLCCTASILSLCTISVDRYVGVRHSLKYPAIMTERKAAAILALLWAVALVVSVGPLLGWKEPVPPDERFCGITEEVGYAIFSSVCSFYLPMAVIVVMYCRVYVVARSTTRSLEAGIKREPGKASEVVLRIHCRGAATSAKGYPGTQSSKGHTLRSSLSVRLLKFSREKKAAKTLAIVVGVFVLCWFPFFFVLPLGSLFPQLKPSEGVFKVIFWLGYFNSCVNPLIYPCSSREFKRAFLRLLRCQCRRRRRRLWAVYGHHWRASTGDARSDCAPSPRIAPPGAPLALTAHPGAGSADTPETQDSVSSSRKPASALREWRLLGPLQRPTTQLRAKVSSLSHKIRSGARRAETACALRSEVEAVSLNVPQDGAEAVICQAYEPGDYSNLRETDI

Thoracic aorta [3] = experiment: Vasodilatory activity in Sprague-Dawley rat thoracic aorta assessed as inhibition of noradrenaline-induced contractions at 100 uM relative to untreated control; format: functional
Rattus norvegicus [4] = experiment: Effect on heart rate in spontaneously hypertensive rat assessed as heart rate level at 80 mg/kg, po measured after 0 hrs by tail-cuff method (reference value: 413.17 +/- 10.5 bpm); format: ADME, organism-based; settings: in vivo
Rattus norvegicus [5] = experiment: Antihypertensive activity in spontaneously hypertensive rat assessed as systolic arterial pressure at 80 mg/kg, po measured after 4 hrs by tail-cuff method (reference value: 178.66 +/- 17.18 mmHg); format: functional
Rattus norvegicus [6] = experiment: Antihypertensive activity in spontaneously hypertensive rat assessed as systolic arterial pressure at 80 mg/kg, po measured after 2 hrs by tail-cuff method (reference value: 189.20 +/- 12.31 mmHg); format: functional
Rattus norvegicus [7] = experiment: Antihypertensive activity in spontaneously hypertensive rat assessed as diastolic arterial pressure at 80 mg/kg, po measured after 1 hr by tail-cuff method (reference value: 147.33 +/- 9.8 mmHg); format: functional
Rattus norvegicus [8] = experiment: Antihypertensive activity in spontaneously hypertensive rat assessed as mean arterial pressure at 80 mg/kg, po measured after 4 hrs by tail-cuff method (reference value: 150.30 +/- 9.26 mmHg); format: functional
Rattus norvegicus [9] = experiment: Antihypertensive activity in spontaneously hypertensive rat assessed as diastolic arterial pressure at 80 mg/kg, po measured after 2 hrs by tail-cuff method (reference value: 149.90 +/- 6 mmHg); format: functional
Rattus norvegicus [10] = experiment: Effect on heart rate in spontaneously hypertensive rat assessed as heart rate level at 80 mg/kg, po measured after 6 hrs by tail-cuff method (reference value: 411.12 +/- 19.1 bpm); format: ADME, organism-based; settings: in vivo
Rattus norvegicus [11] = experiment: Effect on heart rate in spontaneously hypertensive rat assessed as heart rate level at 80 mg/kg, po measured after 8 hrs by tail-cuff method (reference value: 412.77 +/- 11.3 bpm); format: ADME, organism-based; settings: in vivo
Rattus norvegicus [12] = experiment: Antihypertensive activity in spontaneously hypertensive rat assessed as diastolic arterial pressure at 80 mg/kg, po measured after 8 hrs by tail-cuff method (reference value: 140.61 +/- 10.3 mmHg); format: functional
Rattus norvegicus [13] = experiment: Antihypertensive activity in spontaneously hypertensive rat assessed as mean arterial pressure at 80 mg/kg, po measured after 6 hrs by tail-cuff method (reference value: 151.48 +/- 12.24 mmHg); format: functional
Rattus norvegicus [14] = experiment: Antihypertensive activity in spontaneously hypertensive rat assessed as mean arterial pressure at 80 mg/kg, po measured after 8 hrs by tail-cuff method (reference value: 153.55 +/- 11.43 mmHg); format: functional
Rattus norvegicus [15] = experiment: Antihypertensive activity in spontaneously hypertensive rat assessed as systolic arterial pressure at 80 mg/kg, po measured after 1 hr by tail-cuff method (reference value: 185.35 +/- 10.30 mmHg); format: functional
Rattus norvegicus [16] = experiment: Antihypertensive activity in spontaneously hypertensive rat assessed as diastolic arterial pressure at 80 mg/kg, po measured after 6 hrs by tail-cuff method (reference value: 137.54 +/- 9.2 mmHg); format: functional
Rattus norvegicus [17] = experiment: Antihypertensive activity in spontaneously hypertensive rat assessed as diastolic arterial pressure at 80 mg/kg, po measured after 0 hrs by tail-cuff method (reference value: 149.50 +/- 5.4 mmHg); format: functional
Rattus norvegicus [18] = experiment: Antihypertensive activity in spontaneously hypertensive rat assessed as mean arterial pressure at 80 mg/kg, po measured after 0 hrs by tail-cuff method (reference value: 161.70 +/- 5.12 mmHg); format: functional
Rattus norvegicus [19] = experiment: Antihypertensive activity in spontaneously hypertensive rat assessed as systolic arterial pressure at 80 mg/kg, po measured after 6 hrs by tail-cuff method (reference value: 179.36 +/- 18.33 mmHg); format: functional
Rattus norvegicus [20] = experiment: Antihypertensive activity in spontaneously hypertensive rat assessed as systolic arterial pressure at 80 mg/kg, po measured after 8 hrs by tail-cuff method (reference value: 179.42 +/- 13.70 mmHg); format: functional
Rattus norvegicus [21] = experiment: Antihypertensive activity in spontaneously hypertensive rat assessed as systolic arterial pressure at 80 mg/kg, po measured after 0 hrs by tail-cuff method (reference value: 186.10 +/- 4.55 mmHg); format: functional
Rattus norvegicus [22] = experiment: Antihypertensive activity in spontaneously hypertensive rat assessed as diastolic arterial pressure at 80 mg/kg, po measured after 4 hrs by tail-cuff method (reference value: 136.12 +/- 5.3 mmHg); format: functional
Rattus norvegicus [23] = experiment: Antihypertensive activity in spontaneously hypertensive rat assessed as reduction in mean arterial pressure at 80 mg/kg, po measured after 2 hrs by tail-cuff method; format: functional; set-up: scale not given: the % may be the effect or the level left
Rattus norvegicus [24] = experiment: Antihypertensive activity in spontaneously hypertensive rat assessed as mean arterial pressure at 80 mg/kg, po measured after 2 hrs by tail-cuff method (reference value: 163 +/- 8.1 mmHg); format: functional
Rattus norvegicus [25] = experiment: Effect on heart rate in spontaneously hypertensive rat assessed as heart rate level at 80 mg/kg, po measured after 1 hr by tail-cuff method (reference value: 415.25 +/- 14.7 bpm); format: ADME, organism-based; settings: in vivo
Rattus norvegicus [26] = experiment: Antihypertensive activity in spontaneously hypertensive rat assessed as mean arterial pressure at 80 mg/kg, po measured after 1 hr by tail-cuff method (reference value: 160 +/- 9.97 mmHg); format: functional
Rattus norvegicus [27] = experiment: Effect on heart rate in spontaneously hypertensive rat assessed as heart rate level at 80 mg/kg, po measured after 4 hrs by tail-cuff method (reference value: 410.80 +/- 17.4 bpm); format: ADME, organism-based; settings: in vivo
Rattus norvegicus [28] = experiment: Effect on heart rate in spontaneously hypertensive rat assessed as heart rate level at 80 mg/kg, po measured after 2 hrs by tail-cuff method (reference value: 413.2 +/- 15.2 bpm); format: ADME, organism-based; settings: in vivo

COc1cc2c(cc1OCC(O)CN1CCN(C(=O)c3ccco3)CC1)C(=O)C(C)OC2 (stereo not drawn)
inhibition at 10 µM (Thoracic aorta [1]): 33.4% | Kb [2]: 1550 nM | inhibition at 100 µM (Thoracic aorta [3]): 44.9%

COc1ccccc1N1CCN(CC(O)COc2c(OC)ccc3c2COC(C)C3=O)CC1 (stereo not drawn)
inhibition at 10 µM (Thoracic aorta [1]): 13.6% | inhibition at 100 µM (Thoracic aorta [3]): 24.4%

COc1cc2c(cc1OCC(O)CN1CCN(c3ccccc3)CC1)C(=O)C(C)OC2 (stereo not drawn)
inhibition at 10 µM (Thoracic aorta [1]): 28.6% | inhibition at 100 µM (Thoracic aorta [3]): 46.4%

CCOc1ccccc1N1CCN(CC(O)COc2cc3c(cc2OC)COC(C)C3=O)CC1 (stereo not drawn)
inhibition at 10 µM (Thoracic aorta [1]): 25.4% | Kb [2]: 485 nM | inhibition at 100 µM (Thoracic aorta [3]): 55.3%

COc1cc2c(cc1OCC(O)CN1CCN(C(=O)c3ccco3)CC1)COC(C)C2=O (stereo not drawn)
inhibition at 10 µM (Thoracic aorta [1]): 17.8% | inhibition at 100 µM (Thoracic aorta [3]): 22.8%

COc1cc2c(cc1OCC(O)CN1CCN(C(=O)C3CCCO3)CC1)COC(C)C2=O (stereo not drawn)
inhibition at 10 µM (Thoracic aorta [1]): 33.9% | inhibition at 100 µM (Thoracic aorta [3]): 40.1%

COc1ccc2c(c1OCC(O)CN1CCN(c3ccccc3)CC1)COC(C)C2=O (stereo not drawn)
inhibition at 10 µM (Thoracic aorta [1]): 37.8% | Kb [2]: 296 nM | inhibition at 100 µM (Thoracic aorta [3]): 59.7%

COc1cc2c(cc1OCC(O)CN1CCN(c3ccccc3OC)CC1)COC(C)C2=O (stereo not drawn)
inhibition at 10 µM (Thoracic aorta [1]): 41.7% | Kb [2]: 2200 nM | inhibition at 100 µM (Thoracic aorta [3]): 50.4%

COc1ccc2c(c1OCC(O)CN1CCN(c3ccccc3Cl)CC1)COC(C)C2=O (stereo not drawn)
inhibition at 10 µM (Thoracic aorta [1]): 18.2% | inhibition at 100 µM (Thoracic aorta [3]): 29.1%

COc1cc2c(cc1OCC(O)CN1CCN(c3ccccc3)CC1)COC(C)C2=O (stereo not drawn)
inhibition at 10 µM (Thoracic aorta [1]): 39.2% | Kb [2]: 621 nM | inhibition at 100 µM (Thoracic aorta [3]): 48.1%

COc1ccccc1N1CCN(CC(O)COc2cccc3ccccc23)CC1 (stereo not drawn) [NAFTOPIDIL]
Activity (Rattus norvegicus [4]): 415.15 bpm | Activity (Rattus norvegicus [5]): 153.65 mmHg | Activity (Rattus norvegicus [6]): 148.13 mmHg | Activity (Rattus norvegicus [7]): 140.19 mmHg | Activity (Rattus norvegicus [8]): 140.76 mmHg | Activity (Rattus norvegicus [9]): 129.85 mmHg | Activity (Rattus norvegicus [10]): 411.19 bpm | Activity (Rattus norvegicus [11]): 417.25 bpm | Activity (Rattus norvegicus [12]): 143.06 mmHg | Activity (Rattus norvegicus [13]): 145.79 mmHg | Activity (Rattus norvegicus [14]): 152.21 mmHg | Activity (Rattus norvegicus [15]): 161.36 mmHg | Activity (Rattus norvegicus [16]): 139.57 mmHg | Activity (Rattus norvegicus [17]): 152.14 mmHg | inhibition at 10 µM (Thoracic aorta [1]): 47.5% | Activity (Rattus norvegicus [18]): 162.07 mmHg | Activity (Rattus norvegicus [19]): 158.22 mmHg | Activity (Rattus norvegicus [20]): 170.5 mmHg | Activity (Rattus norvegicus [21]): 181.92 mmHg | Activity (Rattus norvegicus [22]): 134.31 mmHg | Activity (Rattus norvegicus [23]): 16.1% | Kb [2]: 143 nM | Activity (Rattus norvegicus [24]): 135.94 mmHg | inhibition at 100 µM (Thoracic aorta [3]): 65.2% | Activity (Rattus norvegicus [25]): 412.14 bpm | Activity (Rattus norvegicus [26]): 147.25 mmHg | Activity (Rattus norvegicus [27]): 409.22 bpm | Activity (Rattus norvegicus [28]): 406.12 bpm

CCOc1ccccc1N1CCN(CC(O)COc2cc3c(cc2OC)C(=O)C(C)OC3)CC1 (stereo not drawn)
inhibition at 10 µM (Thoracic aorta [1]): 11.6% | inhibition at 100 µM (Thoracic aorta [3]): 23.3%

COc1ccc2c(c1OCC(O)CN1CCN(C(=O)c3ccco3)CC1)COC(C)C2=O (stereo not drawn)
inhibition at 10 µM (Thoracic aorta [1]): 20.8% | inhibition at 100 µM (Thoracic aorta [3]): 31.9%

COc1cc2c(cc1OCC(O)CN1CCN(c3ccccc3Cl)CC1)COC(C)C2=O (stereo not drawn)
inhibition at 10 µM (Thoracic aorta [1]): 27% | inhibition at 100 µM (Thoracic aorta [3]): 32.4%

COc1cc2c(cc1OCC(O)CN1CCN(c3ccccc3OC)CC1)C(=O)C(C)OC2 (stereo not drawn)
inhibition at 10 µM (Thoracic aorta [1]): 23.1% | inhibition at 100 µM (Thoracic aorta [3]): 44.6%

COc1cc2c(cc1OCC(O)CN1CCN(c3ccccc3Cl)CC1)C(=O)C(C)OC2 (stereo not drawn)
inhibition at 10 µM (Thoracic aorta [1]): 30.2% | inhibition at 100 µM (Thoracic aorta [3]): 42.4%

CCOc1ccccc1N1CCN(CC(O)COc2c(OC)ccc3c2COC(C)C3=O)CC1 (stereo not drawn)
inhibition at 10 µM (Thoracic aorta [1]): 23.1% | inhibition at 100 µM (Thoracic aorta [3]): 36.1%

COc1ccc2c(c1OCC(O)CN1CCN(C(=O)C3CCCO3)CC1)COC(C)C2=O (stereo not drawn)
inhibition at 10 µM (Thoracic aorta [1]): 31.4% | Kb [2]: 340 nM | inhibition at 100 µM (Thoracic aorta [3]): 45.1%
